Measured values taken from patent publication US8673894B2 (Hoffmann-La Roche Inc., priority 2010, dated 2014).
Structures can show the parent of a compound that is named as a salt.

Key:
[1] = target: T1, endogenous cellular BACE2 (Rattus norvegicus, UniProt Q6IE75); test: Assay for BACE inhibition by measuring cellular TMEM27 cleavage; format: cell-based; details: INS-TMEM27 (INS1e-derived) cells, shed human TMEM27 in supernatant by ELISA
T1 construct: endogenous cellular BACE2 in the Ins1e rat cell line; endogenous in cells; host or cells: INS-TMEM27 (INS1e-derived rat insulinoma cell line with doxycycline-inducible full-length human TMEM27)
T1 sequence (Q6IE75 63-514): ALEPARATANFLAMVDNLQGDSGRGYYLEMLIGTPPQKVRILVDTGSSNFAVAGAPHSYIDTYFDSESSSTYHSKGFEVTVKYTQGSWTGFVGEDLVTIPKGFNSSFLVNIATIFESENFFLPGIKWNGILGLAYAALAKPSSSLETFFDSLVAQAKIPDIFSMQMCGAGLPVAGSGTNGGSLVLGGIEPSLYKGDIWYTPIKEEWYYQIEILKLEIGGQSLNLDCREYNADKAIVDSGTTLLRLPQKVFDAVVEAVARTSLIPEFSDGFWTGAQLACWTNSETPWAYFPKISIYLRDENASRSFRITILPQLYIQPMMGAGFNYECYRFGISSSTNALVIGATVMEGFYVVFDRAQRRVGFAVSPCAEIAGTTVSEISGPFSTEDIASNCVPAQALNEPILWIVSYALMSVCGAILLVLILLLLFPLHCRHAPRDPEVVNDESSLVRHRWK
Outline: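 INS1e rat cells with doxycycline-inducible human TMEM27 get inhibitor 2 h before doxycycline (500 ng/ml final), then 46 h further at 37° C. Shed TMEM27 in the supernatant is measured by sandwich ELISA, and the EC50 comes from a curve fit of the ELISA signal.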

Aβ40 = test: Cellular Aβ-lowering assay; format: cell-based; details: HEK293 cells stably expressing human APP695, Aβ40 in supernatant by ELISA after 18-20 hrs; read-out: Cellular assay Abeta40 IC50
Outline: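 HEK293 cells stably expressing human wild-type APP695 were treated with compound for 18-20 h at 37 °C in 0.8% v/v DMSO. Secreted Aβ40 in the supernatant was measured by sandwich ELISA (Aβ40 C-terminus-specific capture, HRP-4G8 detection, TMB read at 450 nm) and quantified against a pure Aβ peptide standard curve.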

Row | SMILES | IC50 [1] [nM] | IC50 (Aβ40) [nM]
1 | C[C@]1(c2cc(NC(=O)c3ccc(C#N)cn3)ccc2F)N=C(N)COC[C@@H]1F [Example 63, N-(3-((5R,6R)-3-amino-6-fluoro-5-methyl-2,5,6,7-tetrahydro-1,4-oxazepin-5-yl)-4-fluorophenyl)-5-cyanopicolinamide] | 91 | 0.3
2 | C[C@]1(c2cc(NC3CCCC3)ccc2F)N=C(N)COCC1(F)F [Example 64, (R)-5-(5-(cyclopentylamino)-2-fluorophenyl)-6,6-difluoro-5-methyl-2,5,6,7-tetrahydro-1,4-oxazepin-3-amine] | 400 | 360
3 | C[C@]1(c2cc(NC3CCCC3)ccc2F)N=C(N)COC[C@@H]1F [Example 65, (5R,6R)-5-(5-(cyclopentylamino)-2-fluorophenyl)-6-fluoro-5-methyl-2,5,6,7-tetrahydro-1,4-oxazepin-3-amine] | 56 | 48
4 | C[C@]1(c2cc(NC(=O)c3csc(Cl)n3)ccc2F)N=C(N)COCC1(F)F [Example 66, (R)-N-(3-(3-Amino-6,6-difluoro-5-methyl-2,5,6,7-tetrahydro-1,4-oxazepin-5-yl)-4-fluorophenyl)-2-chlorothiazole-4-carboxamide formate] | 54.4 | 15.3
5 | CC(C)Oc1ccc(C(=O)Nc2ccc(F)c([C@@]3(C)N=C(N)COCC3(F)F)c2)nc1 [Example 67, (R)-N-(3-(3-Amino-6,6-difluoro-5-methyl-2,5,6,7-tetrahydro-1,4-oxazepin-5-yl)-4-fluorophenyl)-5-isopropoxypicolinamide formate] | 67400 | 288
6 | C[C@@]1(c2cc(NC(=O)c3ccc(F)cn3)ccc2F)C[C@@H](c2ccccc2)OCC(N)=N1 [Example 68, 5-Fluoro-pyridine-2-carboxylic acid [3-((5S,7S)-3-amino-5-methyl-7-phenyl-2,5,6,7-tetrahydro-[1,4]oxazepin-5-yl)-4-fluoro-phenyl]-amide] | 5250 | 3850
7 | C[C@]1(c2cc(NC(=O)c3ccc(OCF)cn3)ccc2F)N=C(N)COCC1(F)F [Example 70, (R)-N-(3-(3-Amino-6,6-difluoro-5-methyl-2,5,6,7-tetrahydro-1,4-oxazepin-5-yl)-4-fluorophenyl)-5-(fluoromethoxy)picolinamide formate] | 172 | 5.2
8 | C[C@]1(c2cc(NC(=O)c3cnc(OCCF)cn3)ccc2F)N=C(N)COCC1(F)F [Example 71, (R)-N-(3-(3-Amino-6,6-difluoro-5-methyl-2,5,6,7-tetrahydro-1,4-oxazepin-5-yl)-4-fluorophenyl)-5-(2-fluoroethoxy)pyrazine-2-carboxamide formate] | 12400 | 1500
9 | C[C@]1(c2cc(NC(=O)c3cc(Cl)c(Cl)s3)ccc2F)N=C(N)COCC1(F)F [Example 72, (R)-N-(3-(3-Amino-6,6-difluoro-5-methyl-2,5,6,7-tetrahydro-1,4-oxazepin-5-yl)-4-fluorophenyl)-4,5-dichlorothiophene-2-carboxamide formate,] | 2440 | 590
10 | C[C@]1(c2cc(NC(=O)c3nsc(Cl)n3)ccc2F)N=C(N)COCC1(F)F [Example 73, (R)-N-(3-(3-Amino-6,6-difluoro-5-methyl-2,5,6,7-tetrahydro-1,4-oxazepin-5-yl)-4-fluorophenyl)-5-chloro-1,2,4-thiadiazole-3-carboxamide formate] | 6520 | 300
11 | C[C@]1(c2cc(NC(=O)c3cnc(OCC(F)F)cn3)ccc2F)N=C(N)COCC1(F)F [Example 74, (R)-N-(3-(3-Amino-6,6-difluoro-5-methyl-2,5,6,7-tetrahydro-1,4-oxazepin-5-yl)-4-fluorophenyl)-5-(2,2-difluoroethoxy)pyrazine-2-carboxamide formate] | 3380 | 10
12 | CC[C@]1(c2cc(NC(=O)c3ccccn3)ccc2F)N=C(N)COCC1(F)F [Example 75, (R)-N-(3-(3-amino-5-ethyl-6,6-difluoro-2,5,6,7-tetrahydro-1,4-oxazepin-5-yl)-4-fluorophenyl)picolinamide] | 89.8 | 410
13 | CC[C@]1(c2cc(NC(=O)c3ncccc3Cl)ccc2F)N=C(N)COCC1(F)F [Example 76, (R)-N-(3-(3-Amino-5-ethyl-6,6-difluoro-2,5,6,7-tetrahydro-1,4-oxazepin-5-yl)-4-fluorophenyl)-3-chloropicolinamide] | 568 | 4
14 | CC[C@]1(c2cc(NC(=O)c3ncccc3C(F)(F)F)ccc2F)N=C(N)COCC1(F)F [Example 77, (R)-N-(3-(3-Amino-5-ethyl-6,6-difluoro-2,5,6,7-tetrahydro-1,4-oxazepin-5-yl)-4-fluorophenyl)-3-(trifluoromethyl)picolinamide] | 179 | 750
15 | CC[C@]1(c2cc(NC(=O)c3ccc(F)cn3)ccc2F)N=C(N)COCC1(F)F [Example 78, (R)-N-(3-(3-Amino-5-ethyl-6,6-difluoro-2,5,6,7-tetrahydro-1,4-oxazepin-5-yl)-4-fluorophenyl)-5-fluoropicolinamide] | 74.3 | 60
16 | CC[C@]1(c2cc(NC(=O)c3ccc(C#N)cn3)ccc2F)N=C(N)COCC1(F)F [Example 79, (R)-N-(3-(3-Amino-5-ethyl-6,6-difluoro-2,5,6,7-tetrahydro-1,4-oxazepin-5-yl)-4-fluorophenyl)-5-cyanopicolinamide] | 67.1 | 70
17 | CC[C@]1(c2cc(NC(=O)c3ncc(Cl)cn3)ccc2F)N=C(N)COCC1(F)F [Example 80, (R)-N-(3-(3-Amino-5-ethyl-6,6-difluoro-2,5,6,7-tetrahydro-1,4-oxazepin-5-yl)-4-fluorophenyl)-5-chloropyrimidine-2-carboxamide] | 55.9 | 23
18 | CC[C@]1(c2cc(NC(=O)c3cccnn3)ccc2F)N=C(N)COCC1(F)F [Example 81, (R)-N-(3-(3-Amino-5-ethyl-6,6-difluoro-2,5,6,7-tetrahydro-1,4-oxazepin-5-yl)-4-fluorophenyl)pyridazine-3-carboxamide] | 421000 | 5680
19 | CC[C@]1(c2cc(NC(=O)c3ccc(Cl)cn3)ccc2F)N=C(N)COCC1(F)F [Example 82, (R)-N-(3-(3-Amino-5-ethyl-6,6-difluoro-2,5,6,7-tetrahydro-1,4-oxazepin-5-yl)-4-fluorophenyl)-5-chloropicolinamide] | 36.2 | 40
20 | CC[C@]1(c2cc(NC(=O)c3ncc(Cl)cc3Cl)ccc2F)N=C(N)COCC1(F)F [Example 83, (R)-N-(3-(3-Amino-5-ethyl-6,6-difluoro-2,5,6,7-tetrahydro-1,4-oxazepin-5-yl)-4-fluorophenyl)-3,5-dichloropicolinamide] | 19.7 | 15
21 | CC[C@]1(c2cc(NC(=O)c3ncc(F)cc3Cl)ccc2F)N=C(N)COCC1(F)F [Example 84, (R)-N-(3-(3-Amino-5-ethyl-6,6-difluoro-2,5,6,7-tetrahydro-1,4-oxazepin-5-yl)-4-fluorophenyl)-3-chloro-5-fluoropicolinamide] | 60.2 | 130
22 | CC[C@]1(c2cc(NC(=O)c3nn(C)cc3Cl)ccc2F)N=C(N)COCC1(F)F [Example 85, (R)-N-(3-(3-Amino-5-ethyl-6,6-difluoro-2,5,6,7-tetrahydro-1,4-oxazepin-5-yl)-4-fluorophenyl)-4-chloro-1-methyl-1H-pyrazole-3-carboxamide] | 29.2 | 280
23 | CC[C@]1(c2cc(NC(=O)c3n[nH]cc3Cl)ccc2F)N=C(N)COCC1(F)F [Example 86, (R)-N-(3-(3-Amino-5-ethyl-6,6-difluoro-2,5,6,7-tetrahydro-1,4-oxazepin-5-yl)-4-fluorophenyl)-4-chloro-1H-pyrazole-3-carboxamide] | 491 | 370
24 | CC[C@]1(c2cc(NC(=O)c3ncoc3C)ccc2F)N=C(N)COCC1(F)F [Example 87, (R)-N-(3-(3-amino-5-ethyl-6,6-difluoro-2,5,6,7-tetrahydro-1,4-oxazepin-5-yl)-4-fluorophenyl)-5-methyloxazole-4-carboxamide] | 134 | 1120
25 | C[C@]1(c2cc(NC(=O)c3ncc(C(F)(F)F)cc3F)ccc2F)N=C(N)COCC1(F)F [Example 88, (R)-N-(3-(3-Amino-6,6-difluoro-5-methyl-2,5,6,7-tetrahydro-1,4-oxazepin-5-yl)-4-fluorophenyl)-3-fluoro-5-(trifluoromethyl)picolinamide formate] | 354 | 5
26 | COc1ccc(C(=O)Nc2ccc(F)c([C@@]3(C)N=C(N)COCC3(F)F)c2)nc1 [Example 90, (R)-N-(3-(3-Amino-6,6-difluoro-5-methyl-2,5,6,7-tetrahydro-1,4-oxazepin-5-yl)-4-fluorophenyl)-5-methoxypicolinamide formate] | 85.3 | 5
